{
  "source": "the NIST ThermoML archive (doi:10.1016/j.fluid.2014.12.001)",
  "key": {"[1]": {"details": "Crystal; visual observation"}, "[2]": {"assay": "Molar enthalpy of transition or fusion", "details": "Crystal; DSC"}},
  "note": "± gives the expanded uncertainty stated by the source.",
  "data": [
    {"smiles": "Oc1cccc2ccccc12", "note": "[1-naphthol]", "values": [
      {"measurement": "Normal melting temperature", "setting": "[1]", "result": "95.10 ± 1.1", "unit": "°C"},
      {"measurement": "Molar enthalpy of transition or fusion", "setting": "[2]", "result": "5.2 ± 0.237", "unit": "kcal/mol"}
    ]},
    {"smiles": "Nc1ccccc1[N+](=O)[O-]", "note": "[2-nitroaniline]", "values": [
      {"measurement": "Normal melting temperature", "setting": "[1]", "result": "69.7 ± 1.1", "unit": "°C"},
      {"measurement": "Molar enthalpy of transition or fusion", "setting": "[2]", "result": "4.6 ± 0.21", "unit": "kcal/mol"}
    ]}
  ]
}
